Measurements reported in US20220298098A1, “HALOGENATED COMPOUNDS, PROCESS AND USES THEREOF” (Ciimar - Centro Interdisciplinar De Investigaçäo Marinha E …, priority 2019, published 2022).
≈ marks a conversion by molar mass, not a printed value. Read-outs that look alike come from different tables or passages of the source. Blank lines part the entries; values can stand above or below the compound they belong to.

How the values were obtained:
[1] = tested on: coagulase-negative staphylococci; experiment: Biofilm formation inhibition, quantification of total biomass by violet crystal staining; type: cell-based; details: for IC50: read-out: calculated concentration that inhibits the biofilm formation by 50%
Procedure: The biofilm forming ability of coagulase-negative staphylococci, when exposed to compounds 1, 2, 9 and 16, was assessed by quantification of total biomass by violet crystal staining.

[2] = tested on: Staphylococcus aureus S54F9; experiment: Broth microdilution antibiotic susceptibility test; type: cell-based
Procedure: The methanolic extract was submitted to solid phase extraction (Waters Sep-Pak® Vac 35 cc 10 g C18 Cartridges) using mixtures of water/methanol (4:1 to 1:4; 4 to 8 column volumes each), yielding an enriched fraction free of chlorophylls and other pigments. The fraction was then chromatographed using semi-preparative HPLC conditions with a gradient of water/acetonitrile 19:1 to 0:1 (both with 0.1% of formic acid) as mobile phase. Fractions were collected every 30 s (total run time of 70 min) and 140 fractions were collected into 96-well deep well plates, and a 25% of a 67 mg 140-well fractionation was tested against Staphylococcus aureus S54F9. In order to carry out this broth microdilution antibiotic susceptibility test, 50 μL of each HPLC fraction resuspended in 14% MeOH in water were mixed with 50 μL of the S. aureus suspension at 10^6 CFU/mL in 2×MHB in a microtiter plate (final desired inoculum=5·10^5 CFU/mL, final concentration of MeOH in bioassay plate=7%, final volume per well=100 μL). The microtiter plate was replicated onto a selective/differential solid medium (Manitol Salt Agar) in order to distinguish between bacteriostatic and bactericidal activities. Growth controls (broth with bacterial inoculum, no bioactive molecule) as well as sterility (broth only) and solvent controls (broth with 7% MeOH in water) were included.

[3] = coagulase-negative staphylococci biofilm
[4] = S54F9, calculated from the antibiotic activities of the fractions in FIG. 1, range across compounds 1, 2, 9 and 16, read-out: predicted minimal inhibitory concentrations (MICs) against S. aureus

IC50 [1, 3]: 55.1 µg/mL (≈ 180 µM)
MIC [2, 4]: 1790 to 5790 µg/mL (≈ 5830 to 18900 µM)
Structure (SMILES): C[C@H](OC(=O)CCCCCCCCCCCCl)C(=O)O [Compound 1, (S)-2-[(12-chlorododecanoyl)oxy]propanoic acid]
inhibition at 70 µg/mL ([1]; biofilm formation, 70 mg/L): 0%
inhibition at 140 µg/mL ([1]; biofilm formation, 140 mg/L): 74%

Structure (SMILES): C[C@H](OC(=O)CCCCC(Cl)CCCCCC(Cl)Cl)C(=O)O (stereo partly drawn) [Compound 16, (S)-2-[(6,12,12-trichlorododecanoyl)oxy]propanoic acid]
inhibition at 37.5 µg/mL [1]: 0%
inhibition at 75 µg/mL [1]: 68%
inhibition at 150 µg/mL [1]: 71%
IC50 [1]: 43.4 µg/mL (≈ 116 µM)
MIC ([2]; S54F9, read-out: predicted minimal inhibitory concentrations (MICs) against S. aureus): 1790 to 5790 µg/mL (≈ 4760 to 15400 µM)

IC50 [1, 3]: 20.1 µg/mL (≈ 58.9 µM)
MIC [2, 4]: 1790 to 5790 µg/mL (≈ 5250 to 17000 µM)
Structure (SMILES): C[C@H](OC(=O)CCCCC(Cl)CCCCCCCl)C(=O)O (stereo partly drawn) [Compound 9, (S)-2-[(6,12-dichlorododecanoyl)oxy]propanoic acid]
inhibition at 5.65 µg/mL ([1]; biofilm formation, 5.65 mg/L): 0%
inhibition at 11.25 µg/mL ([1]; biofilm formation, 11.25 mg/L): 22%
inhibition at 22.5 µg/mL ([1]; biofilm formation, 22.5 mg/L): 56%
inhibition at 35 µg/mL ([1]; biofilm formation, 35 mg/L): 62%
inhibition at 90 µg/mL ([1]; biofilm formation, 90 mg/L): 66%
inhibition at 180 µg/mL ([1]; biofilm formation, 180 mg/L): 76%
inhibition at 360 µg/mL ([1]; biofilm formation, 360 mg/L): 87%
inhibition at 721 µg/mL ([1]; biofilm formation, 721 mg/L): 88%

IC50 [1, 3]: 94.6 µg/mL (≈ 308 µM)
MIC [2, 4]: 1790 to 5790 µg/mL (≈ 5830 to 18900 µM)
Structure (SMILES): CCCCCCC(Cl)CCCCC(=O)O[C@@H](C)C(=O)O (stereo partly drawn) [Compound 2, (S)-2-[(6-chlorododecanoyl)oxy]propanoic acid]
inhibition at 16 µg/mL ([1]; biofilm formation, 16 mg/L): 0%
inhibition at 32.12 µg/mL ([1]; biofilm formation, 32.12 mg/L): 31%
inhibition at 64.25 µg/mL ([1]; biofilm formation, 64.25 mg/L): 74%
inhibition at 128.5 µg/mL ([1]; biofilm formation, 128.5 mg/L): 89%
inhibition at 257 µg/mL ([1]; biofilm formation, 257 mg/L): 90%
